The results in this text go back to ChEMBL document CHEMBL1136961, “Substituted tetrahydrocarbazoles with potent activity against human papillomaviruses” (Bioorg Med Chem Lett, 2009).

The structures appear in SMILES notation.

The nature of series [1]: (§1) Cytotoxicity against human HFF cells. The series is classed as cell-based. Conditions: HFF cells.
In series [2] the test system is Human papillomavirus type 16. Kind of series: Antiviral activity against HPV-16 infected in human W12-20850 cells after 4 days by non-radioactive hybrid capture technique. The series is classed as functional, organism-based, Human papillomavirus 16.
The nature of series [3]: Selectivity index, ratio of cytotoxicity against human keratinocytes to antiviral activity against HPV-16. The series is classed as toxicity. Conditions: read-out: Selectivity Index.
The nature of series [4]: Clearance in rat at 10 mg/kg administered as suspension. The series is classed as ADME, organism-based. The arrangement: dose 10 mg/kg. The settings on record: in vivo.
Series [5] is described as follows: Selectivity index, ratio of cytotoxicity against african green monkey Vero cells to antiviral activity against HPV-16. The series is classed as toxicity, cell-based. Conditions: read-out: Selectivity Index.
Series [6] is described as follows: Bioavailability in rat at 10 mg/kg administered as suspension. The series is classed as ADME, organism-based. The settings on record: in vivo.
The nature of series [7]: Volume of distribution in rat at 10 mg/kg administered as suspension. The series is classed as ADME, organism-based. Further details: dose 10 mg/kg. The settings on record: in vivo.
Series [8] can be described thus: Half life in rat at 10 mg/kg administered as suspension. The series is classed as ADME, organism-based. Further details: dose 10 mg/kg. Conditions: in vivo.
Another series deals with HFF. Described as §1. The settings on record: hff. The series is classed as cell-based.
The mark [9] stands for this setting: Human papillomavirus 16, W12-20850, 96 h.

What is called CC50 is the concentration that lowers cell viability or growth by half. As usually defined, the IC50 is the concentration that inhibits the measured activity by half. Regarding `C[C@H](N[C@H]1CCCc2c1[nH]c1ccc(Br)cc21)c1ccccc1` (racemic), the half-maximal cytotoxic concentration (CC50) in series [1] was determined as 22.9 µM. Further, the half-inhibitory concentration (IC50) in series [2] (w12-20850) worked out at 0.03 µM.

On to `Cc1ccc2[nH]c3c(c2c1)CCC[C@H]3N[C@H](C)c1ccccc1`, for which it took 29 µM to reach half-maximal cytotoxicity in series [1] (CC50). Moreover, the IC50 in series [2] (setting [9]) amounted to 0.3 µM.

For `Cc1ccc2[nH]c3c(c2c1)CCCC3NCCO` (racemic), the CC50 in series [1] was > 30 µM. Further, in [2] (setting [9]), the concentration for half-maximal inhibition (IC50) was > 30 µM.

In turn, `Cc1ccc2[nH]c3c(c2c1)CCCC3NCc1ccccc1` (racemic) displayed a CC50 in [1] of 21.3 µM. Besides, the IC50 in series [2] (setting [9]) was 1.9 µM.

In [1], `Brc1ccc2[nH]c3c(c2c1)CCCC3NCCc1ccccc1` (racemic) displayed a 50% cytotoxic concentration (CC50) of 11.4 µM. Further, in series [2] (setting [9]), the IC50 is 0.41 µM.

On to `O=[N+]([O-])c1ccc2[nH]c3c(c2c1)CCCC3NCc1ccccc1` (racemic), for which the CC50 in series [1] turned out to be 20.4 µM. In addition, in [2] (setting [9]), the IC50 was determined as 0.23 µM.

With `COc1ccc2[nH]c3c(c2c1)CCCC3NCc1ccccc1` (racemic), the CC50 in series [1] is 57.9 µM. Besides, in series [2] (setting [9]), the IC50 came to 7.6 µM.

For `Cc1ccc2[nH]c3c(c2c1)CCCC3NC(C)c1ccccc1` (racemic), in series [1], it took 40 µM to reach half-maximal cytotoxicity (CC50). Moreover, the half-inhibitory concentration (IC50) in [2] (setting [9]) was 0.54 µM.

As to `Cc1ccc2[nH]c3c(c2c1)CCC[C@@H]3N[C@H](C)c1ccccc1`, in [1], the CC50 came out at 41 µM. The IC50 in [2] (setting [9]) worked out at 7.1 µM.

`Cc1ccc2[nH]c3c(c2c1)CCC[C@H]3N[C@@H](C)c1ccccc1` had a CC50 in series [1] of 29 µM. Besides, the half-maximal inhibitory concentration (IC50) in [2] (setting [9]) is 0.2 µM.

As to `C[C@@H](N[C@H]1CCCc2c1[nH]c1ccc(Br)cc21)c1ccccc1`, in [1], the CC50 was > 30 µM. The IC50 in series [2] (setting [9]) was > 0.5 µM.

Regarding `Brc1ccc2c3c([nH]c2c1)C(NCc1ccccc1)CCC3` (racemic), in series [1], the CC50 is > 40 µM. In series [2] (setting [9]), the IC50 was found to be 11.1 µM.

For `COC(=O)c1ccc2[nH]c3c(c2c1)CCCC3NCc1ccccc1` (racemic), it took 44.5 µM to reach half-maximal cytotoxicity in series [1] (CC50). Further, in [2] (setting [9]), the IC50 came out at 19.7 µM.

With `Brc1cccc2c3c([nH]c12)C(NCc1ccccc1)CCC3` (racemic), the CC50 in series [1] is > 40 µM. In addition, the IC50 in [2] (setting [9]) amounted to 11.4 µM.

As to `CCNC1CCCc2c1[nH]c1ccc(C)cc21` (racemic), the CC50 in series [1] is > 20 µM. Besides, in series [2] (setting [9]), the IC50 is > 20 µM.

`CC(C)(NC1CCCc2c1[nH]c1ccc(Br)cc21)c1ccccc1` (racemic): in series [1], the CC50 was > 40 µM. For the same compound, the IC50 in [2] (setting [9]) turned out to be 0.6 µM.

In turn, `Cc1ccc2[nH]c3c(c2c1)CCCC3NCCc1ccccc1` (racemic) had a CC50 in [1] of 13.5 µM. In addition, in [2] (setting [9]), the IC50 was found to be 2.7 µM.

Compound `OCCNC1CCCc2c1[nH]c1ccc(Br)cc21` (racemic) returned a CC50 in series [1] of 20.1 µM. The IC50 in series [2] (setting [9]) was 6.83 µM.

In series [1], `Fc1ccc2[nH]c3c(c2c1)CCCC3NCc1ccccc1` (racemic) came in with a cytotoxic concentration (CC50) of 35.9 µM. For the same compound, the IC50 in series [2] (setting [9]) stood at 1.6 µM.

`Cc1ccc2[nH]c3c(c2c1)CCC[C@@H]3N[C@@H](C)c1ccccc1`: in [1], it took 36 µM to reach half-maximal cytotoxicity (CC50). Besides, in [2] (setting [9]), the IC50 came to 6.7 µM.

`Cc1ccc2[nH]c3c(c2c1)CCCC3NC1Cc2ccccc2C1` (racemic) registered a CC50 in series [1] of 40 µM. The IC50 in series [2] (setting [9]) worked out at 0.47 µM.

Usually clearance stands for the volume of plasma or blood freed of the substance per unit of time. As usually defined, the bioavailability is the share of a dose that reaches the circulation, judged against a reference dose that is usually intravenous. As usually defined, the Vd is the apparent volume that relates the amount in the body to the concentration in plasma or blood. In general, half-life refers to the time needed for the level to fall by half in the phase considered. For the compound `C[C@@H](N[C@@H]1CCCc2c1[nH]c1ccc(Br)cc21)c1ccccc1`, the selectivity ratio was > 300 in series [3] and > 500 in series [5]. Moreover, in series [4], the clearance amounted to 13.4 mL/min/kg. Besides, the half-maximal cytotoxic concentration (CC50) in series [1] was found to be 9 µM. The compound also gave a bioavailability in series [6] of 47%. This compound also showed a Vd in [7] of 1.9 L/kg. This compound showed a half-life in [8] of 4.4 h. The half-inhibitory concentration (IC50) in series [2] (setting [9]) was found to be 0.03 µM.

Turning to `FC(F)(F)c1ccc2[nH]c3c(c2c1)CCCC3NCc1ccccc1` (racemic), in [1], the CC50 is > 100 µM. Further, in [2] (setting [9]), the IC50 stood at 1 µM.

The compound `C[C@H](N[C@@H]1CCCc2c1[nH]c1ccc(Br)cc21)c1ccccc1` gave a CC50 in series [1] of 15 µM. The IC50 in series [2] (setting [9]) amounted to 0.02 µM.

For `Brc1ccc2[nH]c3c(c2c1)CCCC3NCc1ccccc1` (racemic), in series [1], the 50% cytotoxic concentration (CC50) was 18.8 µM. Also, the IC50 in series [2] (setting [9]) came out at 0.15 µM.

For `Clc1ccc2[nH]c3c(c2c1)CCCC3NCc1ccccc1` (racemic), the CC50 in [1] was 27.9 µM. The IC50 in [2] (setting [9]) was 0.33 µM.

In series [1], `Brc1ccc2[nH]c3c(c2c1)CCCC3NC1Cc2ccccc2C1` (racemic) yielded a CC50 of 30.8 µM. The IC50 in series [2] (setting [9]) was determined as 0.12 µM.

The compound `c1ccc(CNC2CCCc3c2[nH]c2ccccc32)cc1` (racemic) showed a CC50 in series [1] of 40.4 µM. In addition, the IC50 in series [2] (setting [9]) came to 6.7 µM.

As to `C[C@H](N[C@H]1CCCc2c1[nH]c1ccc(Br)cc21)c1ccccc1`, the CC50 with HFF was 28.5 µM. For the same compound, the IC50 in [2] (w12-20850) is 2.85 µM.

Take `CCN(CC)CCNC1CCCc2c1[nH]c1ccc(C)cc21` (racemic): in series [1], the cytotoxic concentration (CC50) was > 30 µM. In addition, the IC50 in [2] (setting [9]) is > 30 µM.
